Data set [1] has as its system pancreatic cancer tumor cell Mia Paca 2. Nature of the data set: Inhibition of tumor cell proliferation (CellTiter-Glo). Format: cell-based. Conditions: Homo sapiens, Miapaca-2 cell, 3-7 days. As for the experimental part: The object of this test example is to determine the inhibition effect of the present compound on tumor cell proliferation activity. The inhibition activity of the compound on tumor cell proliferation was determined by CellTiter-Glo method, and the half inhibitory concentration IC50 of the compound for inhibiting cell proliferation activity was obtained, 50-100 μL of tumor cell suspension was inoculated in a 96-well cell culture plate with a density of 1˜5*10^4 cells/ml. The plate was incubated in an incubator for 16˜24 hours (37° C., 5% CO2). Solutions of test compounds at different concentrations obtained by gradient dilution were added to the cells in the plate. The plate was incubated in an incubator for 3-7 days (37° C., 5% CO2), 50˜100 μL of CellTiter-Glo reagent was added to each well. The plate was shaked for 10 minutes, and left to stand at room temperature for 10 minutes. The value of the chemiluminescence signal was determined by a microplate reader. The inhibition rate was calculated from the value of the chemiluminescence signal. IC50 of the compound was obtained by curve fitting based on the inhibition rate at different concentrations.
The inhibition effect of the present compound on pancreatic cancer tumor cell Mia Paca 2 proliferation activity was determined by the test, and the obtained IC50 value is shown in Table 2.

Data set [2] can be described thus: Pharmacokinetics assay in mice (oral, plasma). Particulars: for Exposure in mouse plasma: dose of 50 mg/kg, oral; for Cmax / MRT / Tmax / half-life / AUC(0-t): mouse, male Balb/c mice, PO 50 mg/kg, plasma; for AUC(0-t): read-out: AUC0-24. Format: in vivo, Balb/c Mouse. The method, then: Balb/c Mouse was used as the test animal. The pharmacokinetic behavior of compounds of Example 1, 2 and 7 administrated orally was studied in mice (plasma).
170 g of PEG400 and 20 g of Solutol HS-15 were added to a 250 mL glass flask, and then 10 mL of NMP was added. The solution was mixed well by ultrasound for 10 minutes to obtain a clear solution.
11.2 mg of the compound of Example 1, 10.8 mg of the compound of Example 2 and 9.8 mg of the compound of Example 7 were weighted to a 4 mL glass flasks respectively, […], 2.160 mL and […] of the above solution were treated by ultrasound for 10 minutes to obtain a colorless clear solution with a concentration of 5 mg/mL.
After fasting overnight, the male Balb/c mice were administrated with the compounds (PO), the dose was 50 mg/kg, and the administration volume was 10 mL/kg.
Blood was taken before administration and at 0.25, 0.5, 1, 2, 4, 6, 8 and 24 hours after administration. The blood samples were stored in EDTA-2K tubes, and centrifuged for 6 minutes to separate the blood plasma. The plasma samples were stored at −80° C.

Data set [3] in a line: Solubility (statement, no method). Format: physicochemical.
Data set [4] deals with T1, hERG potassium channel (Homo sapiens, UniProt Q12809).
T1 construct: expressed in transfected cells; host or cells: CHO-hERG cells
T1 sequence (Q12809 whole entry): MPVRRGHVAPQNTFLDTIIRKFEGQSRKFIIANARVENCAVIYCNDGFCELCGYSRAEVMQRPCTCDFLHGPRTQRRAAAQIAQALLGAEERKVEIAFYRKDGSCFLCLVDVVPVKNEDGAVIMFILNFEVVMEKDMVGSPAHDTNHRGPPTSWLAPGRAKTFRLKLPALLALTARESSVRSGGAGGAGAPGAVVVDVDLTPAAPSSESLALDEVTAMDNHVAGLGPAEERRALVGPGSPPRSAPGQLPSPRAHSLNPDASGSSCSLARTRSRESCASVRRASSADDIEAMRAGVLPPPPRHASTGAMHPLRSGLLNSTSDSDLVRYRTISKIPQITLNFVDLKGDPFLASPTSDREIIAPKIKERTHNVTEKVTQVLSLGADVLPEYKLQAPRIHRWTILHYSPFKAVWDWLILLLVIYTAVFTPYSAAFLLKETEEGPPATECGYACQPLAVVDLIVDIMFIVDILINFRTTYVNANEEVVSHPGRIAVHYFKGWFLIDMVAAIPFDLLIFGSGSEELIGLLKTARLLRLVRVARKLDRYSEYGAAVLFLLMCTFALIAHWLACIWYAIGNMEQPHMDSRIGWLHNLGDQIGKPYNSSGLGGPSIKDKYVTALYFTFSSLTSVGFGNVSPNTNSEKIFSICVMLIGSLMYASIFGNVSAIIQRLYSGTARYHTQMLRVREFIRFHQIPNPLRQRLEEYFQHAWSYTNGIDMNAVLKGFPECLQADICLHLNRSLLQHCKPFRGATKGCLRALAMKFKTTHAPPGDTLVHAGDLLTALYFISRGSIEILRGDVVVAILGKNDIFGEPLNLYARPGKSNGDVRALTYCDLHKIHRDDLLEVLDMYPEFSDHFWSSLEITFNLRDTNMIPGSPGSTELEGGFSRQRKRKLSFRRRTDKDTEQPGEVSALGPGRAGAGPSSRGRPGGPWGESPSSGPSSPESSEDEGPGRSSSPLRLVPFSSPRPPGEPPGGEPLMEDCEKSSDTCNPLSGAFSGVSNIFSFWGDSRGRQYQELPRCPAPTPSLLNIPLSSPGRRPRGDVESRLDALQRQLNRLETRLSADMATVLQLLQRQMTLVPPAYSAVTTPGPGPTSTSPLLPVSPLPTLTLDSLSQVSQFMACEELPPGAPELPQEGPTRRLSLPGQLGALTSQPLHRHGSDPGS
Nature of the data set: hERG potassium channel inhibition activity test (Qpatch, CHO-hERG cells). Format: cell-based. The method, then:
4.1.1 CHO-hERG cells were cultured in a 175 cm2 culture flask. After the cell density reached 60˜80%, the culture solution was removed. The cells were washed with 7 mL of PBS once, and dissociated with 3 mL of Detachin.
4.1.2 After completion of dissociation, the cells were neutralized with 7 mL of culture solution. The solution was centrifuged, and the supernate was removed. The cells were resuspended in 5 mL of culture solution. The cell indensity is ensured as […].
Single cell sealing impedance and formation of whole-cell mode were automatically performed by Qpatch instrument. After obtaining the whole-cell recording mode, the cell was clamped at −80 mV. The cell first underwent pre-voltage of −50 mV for 50 msec, then underwent depolarization stimulation at +40 mV for 5 sec, and then underwent repolarization at −50 mV for 5 sec. and then the voltage returned to −80 mV. The cell underwent the stimulation at the voltage every 15 sec, and the data were recorded for 2 min, then extracellular fluid was administrated, and then the data were recorded for 5 min. Then, the administration process begun. The concentration of the test compound started from the lowest concentration, each test concentration was administrated for 2.5 min. At least three cells were tested for each concentration.
4.4.1 20 mM mother liquor of the compound was diluted with extracellular fluid, 5 uL of 20 mM mother liquor of the compound was added with 2495 uL of extracellular fluid to obtain a concentration of 40 uM (500-fold dilution). The solution was subjected to a 3-fold serial dilution with extracellular fluid containing 0.2% DMSO to obtain a required final concentration.
This concentration of DMSO had no effect on hERG potassium channel.
The experimental data was analyzed by XLFit software.

pIC50: −log10 of the molar value.

What is called Cmax is the maximum level reached in the sampled fluid or tissue. What is called MRT is the average time that molecules of a dose stay in the body. Broadly, the Tmax is the time from dosing to the highest level. For orientation: half-life means the time needed for the level to fall by half in the phase considered.

On to `C[C@@H](NC(=O)c1cc2cc3c(-c4ccncc4)n[nH]c3cc2[nH]1)c1ccccc1` [Example 1, (R)—N-(1-phenylethyl)-3-(pyridin-4-yl)-1,7-dihydropyrrolo[3,2-f]indazole-6-carboxamide], for which the pIC50 in data set [1] is 6.91. Moreover, in data set [2], the “Exposure in mouse plasma” value is recorded as “good exposure”, the Cmax stood at 1310 ng/mL, the MRT was found to be 8.99 h and the Tmax worked out at 0.5 h. Moreover, in data set [2], the half-life is 6.59 h and the AUC(0-t) was found to be 14700 ng·h/mL. Besides, in data set [3], the “Solubility compared with ERK compounds of the prior art” value is “higher solubility”.

As to `C[C@@H](NC(=O)c1nc2cc3c(-c4ccncc4)n[nH]c3cc2[nH]1)c1ccccc1` [Example 2, (R)—N-(1-phenylethyl)-3-(pyridin-4-yl)-1,7-dihydroimidazo[4,5-f]indazole-6-carboxamide], the pIC50 in data set [1] was 7.16. Besides, in data set [2], the “Exposure in mouse plasma” value is recorded as “good exposure”, the concentration peaked (Cmax) at 15900 ng/mL, the MRT is 2.44 h and the Tmax worked out at 2 h. Further, in data set [2], the half-life was 0.82 h and the AUC(0-t) amounted to 50400 ng·h/mL. Moreover, the “Solubility compared with ERK compounds of the prior art” value in data set [3] was “higher solubility”. For the same compound, in data set [4], the “Inhibition effect on cardiac hERG potassium channel” value was “no inhibition effect”. The pIC50 in data set [4] (CHO-hERG cells, highest test concentration 40 uM, read-out: hERG (inhibition effect on hERG current)) was under 4.40.

Values taken from patent US20200247815A1, “PYRAZOLYL-CONTAINING TRICYCLIC DERIVATIVE, PREPARATION METHOD THEREFOR AND USE THEREOF” (Jiangsu Hansoh Pharmaceutical Group Co., Ltd., priority 2017, published 2020).
